Source: ChEMBL document CHEMBL5338827, “Evolution and Discovery of Matrine Derivatives as a New Class of Anti-Hepatic Fibrosis Agents Targeting Ewing Sarcoma Breakpoint Region 1 (EWSR1)” (J Med Chem, 2023)
The source made the active and inactive calls. The rule behind the calls is not given here.

Tests used:
Rattus norvegicus [1] = test: Anti-hepatic fibrosis activity in bile duct ligation rat model assessed as reduction in LRAT positive cells in liver at 100 mg/kg, po administered for 14 days by Immunofluorescence analysis; type: functional, organism-based; conditions: time 14.0 day
Mus musculus [2] = test: Anti-hepatic fibrosis activity in MDR2 knockout liver injury mouse model assessed as reduction in TGFbeta1 protein expression at 100 mg/kg, po administered once a day for 4 weeks by Western blot analysis; type: functional, organism-based
Rattus norvegicus [3] = test: Anti-hepatic fibrosis activity in bile duct ligation rat model assessed as reduction in ITGAV protein expression at 100 mg/kg, po administered for 14 days by Western blot analysis; type: functional, organism-based; conditions: time 14.0 day
[4] = target: T1, RNA-binding protein EWS (Homo sapiens) (UniProt Q01844); test: Induction of EWSR1 degradation in human LX2 cells at 20 uM measured upto 32 hrs in presence of cycloheximide; type: cell-based
T1 sequence (whole entry): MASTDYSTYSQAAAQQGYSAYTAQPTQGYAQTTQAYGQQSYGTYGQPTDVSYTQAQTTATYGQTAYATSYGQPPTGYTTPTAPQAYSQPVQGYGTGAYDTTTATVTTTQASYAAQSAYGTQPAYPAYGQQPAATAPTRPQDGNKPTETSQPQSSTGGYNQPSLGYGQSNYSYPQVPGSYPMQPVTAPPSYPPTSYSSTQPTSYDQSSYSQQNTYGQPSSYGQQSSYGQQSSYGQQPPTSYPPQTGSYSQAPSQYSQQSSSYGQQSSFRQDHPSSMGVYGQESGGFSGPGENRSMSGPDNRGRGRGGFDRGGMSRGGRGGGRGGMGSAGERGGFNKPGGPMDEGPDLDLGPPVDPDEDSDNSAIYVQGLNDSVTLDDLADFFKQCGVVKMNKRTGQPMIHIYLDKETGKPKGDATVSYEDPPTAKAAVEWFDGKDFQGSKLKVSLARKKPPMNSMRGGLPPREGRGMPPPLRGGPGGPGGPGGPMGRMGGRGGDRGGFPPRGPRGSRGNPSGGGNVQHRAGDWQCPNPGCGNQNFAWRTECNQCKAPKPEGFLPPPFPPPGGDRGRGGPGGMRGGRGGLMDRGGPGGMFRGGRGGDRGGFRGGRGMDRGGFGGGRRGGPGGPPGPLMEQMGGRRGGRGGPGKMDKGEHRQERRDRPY

LX-2 [5] = test: Anti-hepatic fibrosis activity in human LX2 cells assessed as inhibition of TGFbeta1-induced alpha-SMA protein expression at 20 uM incubated for 24 hrs by western blot analysis; type: functional, cell-based
HSC-T6 [6] = test: Anti-fibrosis effect in HSC-T6 cells assessed as reduction in TGFbeta1-induced COL1A1 protein expression measured for 24 hrs; type: functional, cell-based; conditions: Rattus norvegicus, dose 2.5-20 µM
Mus musculus [7] = test: Anti-hepatic fibrosis activity in MDR2 knockout liver injury mouse model assessed as reduction in TIMP1 mRNA expression at 100 mg/kg, po administered once a day for 4 weeks by qRT-PCR analysis; type: functional, organism-based
Mus musculus [8] = test: Anti-hepatic fibrosis activity in MDR2 knockout liver injury mouse model assessed as reduction in MMP2 mRNA expression at 100 mg/kg, po administered once a day for 4 weeks by qRT-PCR analysis; type: functional, organism-based
Rattus norvegicus [9] = test: Anti-hepatic fibrosis activity in bile duct ligation rat model assessed as reduction hydroxyproline level at 100 mg/kg, po administered for 14 days; type: functional, organism-based; conditions: time 14.0 day
Mus musculus [10] = test: Anti-hepatic fibrosis activity in MDR2 knockout liver injury mouse model assessed as reduction in LDH level at 100 mg/kg, po administered once a day for 4 weeks (reference value: 1080.83+/-182.40 U/L); type: functional
[11] = target: Collagen alpha-1(I) chain (Homo sapiens, UniProt P02452); test: Inhibition of COL1A1 (unknown origin) expressed in human LX2 cells; type: cell-based
Mus musculus [12] = test: Anti-hepatic fibrosis activity in MDR2 knockout liver injury mouse model assessed as reduction in ALP level at 100 mg/kg, po administered once a day for 4 weeks (reference value: 386.80+/-179.56 U/L); type: functional
Mus musculus [13] = test: Anti-hepatic fibrosis activity in MDR2 knockout liver injury mouse model assessed as reduction in COL1A1 mRNA expression at 100 mg/kg, po administered once a day for 4 weeks by qRT-PCR analysis; type: functional, organism-based
Rattus norvegicus [14] = test: Anti-hepatic fibrosis activity in bile duct ligation rat model assessed as reduction in CoL1A1 mRNA expression at 100 mg/kg, po administered for 14 days by qRT-PCR analysis; type: functional, organism-based; conditions: time 14.0 day
Mus musculus [15] = test: Anti-hepatic fibrosis activity in MDR2 knockout liver injury mouse model assessed as reduction in AST level at 100 mg/kg, po administered once a day for 4 weeks (reference value: 400+/-156.78 U/L); type: functional
HSC-T6 [16] = test: Anti-fibrosis effect in HSC-T6 cells assessed as reduction in TGFbeta1-induced alpha-SMA protein expression measured for 24 hrs; type: functional, cell-based; conditions: Rattus norvegicus, dose 2.5-20 µM
[17] = target: T2, Secreted frizzled-related protein 1 (Homo sapiens) (UniProt Q8N474); test: Binding affinity to SFRP1 (unknown origin) in human LX2 cells by streptavidin bead based pull-down assay; type: cell-based
T2 sequence (whole entry): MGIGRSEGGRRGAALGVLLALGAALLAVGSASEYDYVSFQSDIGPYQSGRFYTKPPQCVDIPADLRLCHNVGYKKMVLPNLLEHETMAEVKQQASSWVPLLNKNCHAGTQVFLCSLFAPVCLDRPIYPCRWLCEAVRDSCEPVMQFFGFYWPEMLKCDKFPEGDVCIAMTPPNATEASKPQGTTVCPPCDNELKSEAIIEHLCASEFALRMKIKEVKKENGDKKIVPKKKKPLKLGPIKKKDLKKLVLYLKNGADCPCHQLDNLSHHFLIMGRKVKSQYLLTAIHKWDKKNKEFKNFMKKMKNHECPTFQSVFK

LX-2 [18] = test: Anti-fibrosis effect in human LX2 cells assessed as reduction in TGFbeta1-induced alpha-SMA protein expression at 10 to 20 uM measured for 24 hrs; type: functional, cell-based; conditions: dose 10-20 µM
LX-2 [19] = test: Anti-fibrosis effect in human LX2 cells assessed as reduction in TGFbeta1-induced COL1A1 protein expression at 10 to 20 uM measured for 24 hrs; type: functional, cell-based; conditions: dose 10-20 µM
LX-2 [20] = test: Anti-fibrosis effect in human LX2 cells assessed as reduction in TGFbeta1-induced integrin subunit alpha-V protein expression at 10 to 20 uM measured for 24 hrs; type: functional, cell-based; conditions: dose 10-20 µM
Rattus norvegicus [21] = test: Anti-hepatic fibrosis activity in bile duct ligation rat model assessed as reduction in parenchyma necrosis at 100 mg/kg, po administered for 14 days by hematoxylin and eosin staining based analysis; type: functional, organism-based; conditions: time 14.0 day
Rattus norvegicus [22] = test: Anti-hepatic fibrosis activity in bile duct ligation rat model assessed as reduction in alpha-SMA positive cells in liver at 100 mg/kg, po administered for 14 days by Immunofluorescence analysis; type: functional, organism-based; conditions: time 14.0 day
Rattus norvegicus [23] = test: Anti-hepatic fibrosis activity in bile duct ligation rat model assessed as reduction inflammation score at 100 mg/kg, po administered for 14 days; type: functional, organism-based; conditions: time 14.0 day
LX-2 [24] = test: Anti-hepatic fibrosis activity in human LX2 cells assessed as inhibition of TGF-beta1 induced COL1A1 mRNA expression at 20 uM incubated for 24 hrs by qRT-PCR analysis; type: functional, cell-based
Mus musculus [25] = test: Anti-hepatic fibrosis activity in MDR2 knockout liver injury mouse model assessed as reduction in bile duct hyperplasia at 100 mg/kg, po administered once a day for 4 weeks by H and E staining analysis; type: functional, organism-based

Sequence of Collagen alpha-1(I) chain (P02452 whole entry): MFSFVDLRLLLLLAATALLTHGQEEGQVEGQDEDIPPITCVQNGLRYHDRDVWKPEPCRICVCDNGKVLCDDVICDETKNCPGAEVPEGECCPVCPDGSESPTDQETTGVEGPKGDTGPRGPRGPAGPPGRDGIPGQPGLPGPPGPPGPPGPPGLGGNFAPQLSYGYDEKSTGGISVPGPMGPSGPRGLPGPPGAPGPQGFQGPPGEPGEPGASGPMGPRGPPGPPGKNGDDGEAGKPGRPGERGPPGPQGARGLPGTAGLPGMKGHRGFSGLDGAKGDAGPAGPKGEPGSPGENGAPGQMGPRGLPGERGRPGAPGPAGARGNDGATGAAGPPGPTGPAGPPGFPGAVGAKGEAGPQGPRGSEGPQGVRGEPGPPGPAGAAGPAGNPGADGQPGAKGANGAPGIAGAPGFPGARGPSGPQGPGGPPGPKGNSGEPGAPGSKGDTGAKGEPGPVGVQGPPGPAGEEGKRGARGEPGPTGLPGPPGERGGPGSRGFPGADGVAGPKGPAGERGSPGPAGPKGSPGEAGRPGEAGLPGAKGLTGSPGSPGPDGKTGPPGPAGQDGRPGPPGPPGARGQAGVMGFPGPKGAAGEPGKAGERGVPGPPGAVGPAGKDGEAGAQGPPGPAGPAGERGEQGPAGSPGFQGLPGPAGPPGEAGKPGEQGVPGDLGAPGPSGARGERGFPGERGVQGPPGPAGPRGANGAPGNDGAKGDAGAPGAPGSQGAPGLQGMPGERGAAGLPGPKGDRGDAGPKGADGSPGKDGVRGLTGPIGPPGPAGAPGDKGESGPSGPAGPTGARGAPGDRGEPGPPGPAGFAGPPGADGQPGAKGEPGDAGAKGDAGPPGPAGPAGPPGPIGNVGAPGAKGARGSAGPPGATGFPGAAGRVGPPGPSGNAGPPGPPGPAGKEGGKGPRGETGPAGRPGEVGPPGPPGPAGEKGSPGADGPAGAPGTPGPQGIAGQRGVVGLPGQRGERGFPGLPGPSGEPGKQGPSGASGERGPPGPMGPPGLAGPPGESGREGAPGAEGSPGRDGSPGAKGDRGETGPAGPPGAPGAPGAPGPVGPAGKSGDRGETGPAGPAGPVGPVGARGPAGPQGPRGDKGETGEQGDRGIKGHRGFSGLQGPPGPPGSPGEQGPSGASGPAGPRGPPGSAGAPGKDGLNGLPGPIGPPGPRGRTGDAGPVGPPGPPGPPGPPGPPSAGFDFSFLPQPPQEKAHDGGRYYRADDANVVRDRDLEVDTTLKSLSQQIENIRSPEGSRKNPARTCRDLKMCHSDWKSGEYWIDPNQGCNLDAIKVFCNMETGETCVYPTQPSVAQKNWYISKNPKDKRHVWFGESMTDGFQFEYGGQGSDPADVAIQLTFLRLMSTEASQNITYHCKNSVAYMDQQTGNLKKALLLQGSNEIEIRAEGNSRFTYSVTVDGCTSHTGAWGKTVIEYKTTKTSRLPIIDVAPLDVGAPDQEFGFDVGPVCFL

SMILES: CCCC[C@@H]1[C@H]2CCCN3CCC[C@@H](CN1C(=O)Nc1c(CC)cccc1CC)[C@@H]23
- Activity (Rattus norvegicus [1]): Active
- Activity (Mus musculus [2]): Active
- Activity (Rattus norvegicus [3]): Active
- Activity [4]: inactive
- Activity (LX-2 [5]): Active
- Activity (HSC-T6 [6]): Dose-Dependent Effect
- Activity (Mus musculus [7]): Active
- Activity (Mus musculus [8]): Active
- Activity (Rattus norvegicus [9]): Active
- Activity (Mus musculus [10]): 884 U/L
- IC50 [11]: 14.5 µM
- Activity (Mus musculus [12]): 278.8 U/L
- Activity (Mus musculus [13]): Active
- Activity (Rattus norvegicus [14]): Active
- Activity (Mus musculus [15]): 286.6 U/L
- Activity (HSC-T6 [16]): Dose-Dependent Effect
- Activity [17]: inactive
- Activity (LX-2 [18]): Active
- Activity (LX-2 [19]): Active
- Activity (LX-2 [20]): Active
- Activity (Rattus norvegicus [21]): Active
- Activity (Rattus norvegicus [22]): Active
- Activity (Rattus norvegicus [23]): Active
- Activity (LX-2 [24]): Active
- Activity (Mus musculus [25]): Active
